Structures can show the parent of a compound that is named as a salt.
Legend:
[1] = in vivo; cited from earlier work
[2] = test system: mild-to-moderate Alzheimer's disease patients; conditions: cited from earlier work
[3] = test system: women diagnosed with mild-to-moderate Alzheimer's Disease; test: ADAS-Cog test, 48-week double-blind placebo-controlled clinical trial; format: in vivo, human
Description: During 2004-2005, a 48-week, double-blind placebo-controlled dose ranging study was conducted in 108 women diagnosed with mild-to-moderate Alzheimer's Disease. The study inclusion criteria included a requirement that each patient either (a) is taking a cholinesterase inhibitor, began taking it at least 90 days prior to the trial and is likely to continue taking it at the same dosage level throughout the trial; or (b) has never taken a cholinesterase inhibitor or has stopped taking at least 90 days prior to the trial and is likely to remain off cholinesterase inhibitors throughout the trial. The patients in the subgroup taking cholinesterase inhibitors were in turn divided into two groups for analysis purposes:
Group 1 patients were administered an injectable 22.5 mg formulation of leuprolide acetate in combination with a stable dose of acetylcholinesterase inhibitors (AChEI). At the completion of the study, Group 1 included 24 subjects. Group 2 patients were administered a placebo injection (saline) in combination with a stable dose of AChEI. […]
During the Phase II study, the administrations of leuprolide acetate and placebo occurred at weeks 0, 12, 24, 36, and 48 of the study, whereas doses of AChE inhibitors were taken as prescribed by a physician (determined as the proper beneficial level) to each specific patient before enrollment. […]

[4] = test system: glioblastoma cell lines (LN229, U87, U118MG); test: Cell growth assay (WST-8, 96 well), glioblastoma cell lines; format: cell-based; conditions: 10^-5 M (12.25 μg/ml) vs 0 M control, WST-8, optical density 450 nm, FIG. 5
Description: (§1) For cell growth assays in a 96 well format, a specific number of cells were plated (about 1000 cells for each line). All cell lines were plated in their respective growth media (supplemented with either 1% regular fetal bovine serum, 1% charcoal/dextran-stripped fetal bovine serum or 0.25% Albumax™ (Invitrogen Corp., Grand Island N.Y.)) and allowed to settle for 24 hours. Leuprolide treatments were commenced […]. A 10 mM (12.25 mg/ml) solution of leuprolide acetate salt in phosphate buffered saline was prepared and diluted appropriately to obtain the desired final concentrations. Treatment concentrations were 0 M (control) and 10^−5 M (shown as 1.00E-5, 12.25 μg/ml). The number of cells in each group was measured by incubating cells with WST-8 (2-(2-methoxy-4-nitrophenyl)-3-(4-nitrophenyl)-5-(2,4-disulfophenyl)-2H-tetrazolium, monosodium salt) which produces a water soluble formazan dye that was detected by measuring optical density (at 450 nm) using a μQuant™ Universal Microplate Spectrophotometer (Bio-Tek® Instruments, Inc., Winooski, Vt.).

men with prostate cancer = conditions: daily injections for up to two years, Lupron Depot package insert; cited from earlier work
testosterone suppression = conditions: Fowler et al. 2000; cited from earlier work
[5] = test system: neuroblastoma cell lines (DAOY, SKNMC, CCF-SttG1); test: Cell growth assay (WST-8, 96 well), neuroblastoma cell lines; format: cell-based; conditions: 10^-5 M (12.25 μg/ml) vs 0 M control, WST-8, optical density 450 nm, FIG. 5
Description: as §1

CC12CC3CC(C)(C1)CC(N)(C3)C2 [Memantine]
dose excreted in the urine unchanged [1]: up to 82%

COc1cc2c(cc1OC)C(=O)C(CC1CCN(Cc3ccccc3)CC1)C2 (stereo not drawn) [donepezil, Donepezil]
decline on ADAS-cog after 52 weeks of treatment ([2]; Wilcock et al., one year trial comparing two AChEIs): 3.43±0.8 points

CCNC(=O)[C@@H]1CCCN1C(=O)[C@H](CCCNC(=N)N)NC(=O)[C@H](CC(C)C)NC(=O)[C@@H](CC(C)C)NC(=O)[C@H](Cc1ccc(O)cc1)NC(=O)[C@H](CO)NC(=O)[C@H](Cc1c[nH]c2ccccc12)NC(=O)[C@H](Cc1c[nH]cn1)NC(=O)[C@@H]1CCC(=O)N1 [leuprolide acetate, 5-oxo-L-prolyl-L-histidyl-L-tryptophyl-L-seryl-L-tyrosyl-D-leucyl-L-leucyl-L-arginyl-N-ethyl-L-prolinamide acetate (salt)]
cognitive decline as percent of expected no-treatment decline ([3]; 100% decline = 5.6 ADAS-cog points in a year (literature placebo)): 84% | decline on ADAS-cog (mean change from baseline) ([3]; females, over 48 weeks, stable dose of AChEI, leuprolide acetate (Lupron Depot) 22.5 mg at 12-week intervals where given): 4.68 points | cell growth of glioblastoma cell lines [4]: inhibits cell growth | cell growth of glioblastoma cell lines ([4]; listed as Leuprolide): very effective at slowing the growth | adverse effects of 20 mg per day versus 1 mg per day (men with prostate cancer): did not result in any adverse effects different from what was seen with the 1 mg dose | serum concentration considered adequate for testosterone suppression (testosterone suppression): less than 1 ng/ml | cell growth of neuroblastoma cell lines [5]: inhibits cell growth | cell growth of neuroblastoma cell lines ([5]; listed as Leuprolide): very effective at slowing the growth

NCCCS(=O)(=O)O [tramiprosate]
overall 18 month decline on ADAS-cog, mild patients ([2]; ongoing trial, overall decline, mild patients): 5.5 points | overall 18 month decline on ADAS-cog, moderate patients ([2]; ongoing trial, overall decline, moderate patients): 6.3 points

Reference: patent publication US20110195898A1, “TREATMENT OF ALZHEIMER'S DISEASE AND MILD COGNITIVE IMPAIRMENT USING GNRH-I ANALOGS AND ONE OR MORE OF ACETYLCHOLINESTERASE INHIBITORS AND NMDA RECEPTOR ANTAGONISTS” (Voyager Pharmaceutical Corporation, priority 2004, published 2011)
